This is an account of results in US10703748B2, “Diazanaphthalen-3-yl carboxamides and preparation and use thereof” (Samumed, LLC, priority 2017, dated 2020).

The EC50 is the midpoint of the concentration-response curve.

For one assay, the target named is DYRK1A kinase (Homo sapiens, UniProt Q13627). Put plainly: DYRK1A kinase activity (Ser/Thr 18 peptide Z-lyte FRET assay).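 Further: kinase activity read as coumarin/fluorescein emission ratio after development step, with unphosphorylated and phosphorylated peptide forms setting 0% and 100% controls, values from dose-response curves.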 Format: biochemical. The following applies: recombinant DYRK1A, 30 μM ATP, one hour at room temperature.
A further assay deals with GSK3β kinase (Homo sapiens, UniProt P49841). Put plainly: GSK3β kinase activity (Ser/Thr 09 peptide Z-lyte FRET assay). Type of assay: biochemical. The following applies: recombinant kinase, 46 μM ATP, one hour at room temperature; read-out: EC50.
The subject of assay [1] is secreted cytokines TNFα, IL-6 and KC-GRO. Put plainly: Secreted cytokines in Lipopolysaccharide-stimulated BV-2 cells (Table 9 does not say which cytokine). The following applies: Mus musculus, BV-2, 5 h; read-out: EC50. Type of assay: cell-based, mouse.
Assay [2] concerns SW480 colon carcinoma cells. Put plainly: Cell viability assay (CellTiter-Glo). Particulars: Homo sapiens; for EC50: SW480, 96 h; for inhibition at 10 µM: SW480, read-out: percent inhibition at 10 μM. (In ATP-based viability assays light output follows the ATP content of the culture.)
The test system of assay [3] is Wnt-responsive Sp5-Luc reporter in SW480 colon carcinoma cells. Put plainly: Screening assay for Wnt activity (Sp5-Luc reporter gene assay). The following applies: Homo sapiens; for EC50: SW480; for inhibition at 10 µM: SW480, read-out: percent inhibition at 10 μM.
A further assay has as its system IL-6. Put plainly: IL-6 inhibition in LPS-stimulated human peripheral blood mononuclear cells (HTRF). The following applies: Homo sapiens, PBMC; for EC50: 22 h; for inhibition at 10 µM: read-out: percentage in parentheses after EC50 >10. On the technique in general: Time-resolved FRET reads energy transfer from a long-lived donor to a nearby acceptor.
The subject of assay [4] is α-smooth muscle actin (aSMA) positive LL29 cells. Put plainly: Inhibition of the fibrotic process: αSMA staining in TGF-β1 treated LL29 fibroblasts from IPF patients. The following applies: Homo sapiens, Fibroblast; for EC50: 96 h; for inhibition at 10 µM: read-out: percentage in parentheses after EC50 >10.

Chain of GSK3β kinase (P49841 whole entry): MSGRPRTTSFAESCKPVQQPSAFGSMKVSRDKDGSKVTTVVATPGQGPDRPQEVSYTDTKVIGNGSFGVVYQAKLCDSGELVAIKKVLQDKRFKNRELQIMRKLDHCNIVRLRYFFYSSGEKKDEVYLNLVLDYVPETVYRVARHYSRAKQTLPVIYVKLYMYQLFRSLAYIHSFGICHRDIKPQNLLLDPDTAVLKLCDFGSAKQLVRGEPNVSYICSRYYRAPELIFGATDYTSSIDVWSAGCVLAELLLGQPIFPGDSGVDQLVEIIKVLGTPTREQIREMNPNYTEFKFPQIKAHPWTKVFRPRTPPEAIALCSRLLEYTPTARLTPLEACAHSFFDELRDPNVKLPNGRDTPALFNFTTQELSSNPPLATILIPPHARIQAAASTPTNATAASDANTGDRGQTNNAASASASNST

Take `O=C(Nc1cc2cc(-c3cncc(NC4CCNCC4)n3)cnc2cn1)C1CCOCC1` [Compound 3597, N-(3-(6-(Piperidin-4-ylamino)pyrazin-2-yl)-1,7-naphthyridin-6-yl) tetrahydro-2H-pyran-4-carboxamide]: the EC50 on DYRK1A kinase was 6 nM; at GSK3β kinase, over 10000 nM; in assay [1], at least 10000 nM; in assay [2], over 10000 nM; in assay [3], over 10000 nM; in the assay on IL-6 it was over 10000 nM. For the same compound, the EC50 in assay [4] was over 10000 nM. Further, the inhibition at 10 µM in assay [2] came to 8.1%; in assay [3] it was 7.6%; in the assay with IL-6, 0%; in assay [4], 7.7%.
Turning to `O=C(Nc1cc2nc(-c3cnco3)ccc2cn1)[C@H]1CC[C@H](CO)CC1` [Compound 4548, trans-4-(Hydroxymethyl)-N-(2-(oxazol-5-yl)-1,6-naphthyridin-7-yl) cyclohexane-1-carboxamide], the EC50 is 19 nM on DYRK1A kinase; 785 nM on GSK3β kinase; 400 nM in assay [1]; over 10000 nM in assay [2]; over 10000 nM in assay [3]; over 10000 nM with IL-6. For the same compound, the EC50 in assay [4] was over 10000 nM. Besides, the inhibition at 10 µM in assay [2] was determined as 29.8%; with IL-6, 3.2%; in assay [4], 50%.
As to `Cn1cc(-c2cnc3cnc(NC(=O)C4CCN(Cc5ncccn5)CC4)cc3c2)cn1` [Compound 2820, N-(3-(1-Methyl-1H-pyrazol-4-yl)-1,7-naphthyridin-6-yl)-1-(pyrimidin-2-ylmethyl)piperidine-4-carboxamide], the EC50 is 37 nM at DYRK1A kinase; 7060 nM at GSK3β kinase; 895 nM in assay [1]; over 10000 nM in assay [2]; over 10000 nM in assay [3]; over 10000 nM in the assay on IL-6. For the same compound, in assay [4], the EC50 came to 8910 nM. Further, the figures for the inhibition at 10 µM (in assay [2]; in assay [3]; with IL-6) were 22.4%, 5.3% and 3.3%, respectively.
With `Cn1ncc(-c2ccc3cnc(NC(=O)c4ccnc(N5CCOCC5)c4)cc3n2)c1CN1CCOCC1` [Compound 314, N-(2-(1-Methyl-5-(morpholinomethyl)-1H-pyrazol-4-yl)-1,6-naphthyridin-7-yl)-2-morpholinoisonicotinamide], the EC50 at DYRK1A kinase was 8 nM; at GSK3β kinase it was 2610 nM; in assay [1] it was 138 nM; in assay [2], 441 nM; in assay [3], 368 nM; in the assay with IL-6 it was over 10000 nM. Further, it took 989 nM to reach a half-maximal effect in assay [4] (EC50). Besides, the inhibition at 10 µM with IL-6 is 47.6%.
For `O=C(Nc1ncc2ccc(-c3cncc(NC4CCNCC4)n3)cc2n1)C1CCOCC1` [Compound 1783, N-(7-(6-(Piperidin-4-ylamino)pyrazin-2-yl)quinazolin-2-yl)tetrahydro-2H-pyran-4-carboxamide], the EC50 on DYRK1A kinase was 7 nM; on GSK3β kinase, 536 nM; in assay [1], 6800 nM; in assay [2] it was over 10000 nM; in assay [3], over 10000 nM; in the assay on IL-6 it was over 10000 nM. In assay [4], the half-maximal effective concentration (EC50) was over 10000 nM. The inhibition at 10 µM in assay [2] is 38.8%; in assay [3], 14.4%; in the assay with IL-6 it was 6.1%; in assay [4], 53.7%.
Take `CN1CCN(c2ccc(C(=O)Nc3cc4nc(-c5cnn(C)c5)ccc4cn3)cn2)CC1` [Compound 151, N-(2-(1-Methyl-1H-pyrazol-4-yl)-1,6-naphthyridin-7-yl)-6-(4-methylpiperazin-1-yl)nicotinamide]: the EC50 on DYRK1A kinase stood at 2 nM; on GSK3β kinase, 571 nM; in assay [1], 88 nM; in assay [2], 3680 nM; in assay [3] it was 498 nM; in the assay with IL-6 it was 3680 nM. The midpoint of the response in assay [4], the EC50, lay at 432 nM.
`CN1CCC(Nc2cncc(C(=O)Nc3cc4cc(-c5cnn(C)c5)ncc4cn3)c2)CC1` [Compound 3783, N-(6-(1-Methyl-1H-pyrazol-4-yl)-2,7-naphthyridin-3-yl)-5-((1-methylpiperidin-4-yl)amino)nicotinamide]: the EC50 at DYRK1A kinase is 4 nM; at GSK3β kinase, 2340 nM; in assay [1], 5300 nM; in assay [2], 1970 nM; in assay [3], 1080 nM; with IL-6, over 10000 nM. The same compound showed an EC50 in assay [4] of 2100 nM. In addition, in the assay on IL-6, the inhibition at 10 µM worked out at 1.7%.
As for `CN1CCN(c2cc(C(=O)Nc3cc4cc(-c5ccc(N)nc5)ncc4cn3)ccn2)CC1` [Compound 4434, N-(6-(6-Aminopyridin-3-yl)-2,7-naphthyridin-3-yl)-2-(4-methylpiperazin-1-yl)isonicotinamide], the EC50 at DYRK1A kinase was 12 nM; at GSK3β kinase it was over 10000 nM; in assay [1] it was 9500 nM; in assay [2], 5150 nM; in assay [3], 8480 nM; in the assay with IL-6, 9850 nM. In assay [4], the EC50 is 1600 nM.
With `O=C(Nc1cc2nc(-c3cncs3)ccc2cn1)c1ccc(OC2CCNCC2)cc1` [Compound 624, 4-(Piperidin-4-yloxy)-N-(2-(thiazol-5-yl)-1,6-naphthyridin-7-yl)benzamide], the EC50 on DYRK1A kinase amounted to 3 nM; at GSK3β kinase it was 2930 nM; in assay [1], 8800 nM; in assay [2], 694 nM; in assay [3] it was 750 nM; in the assay with IL-6, 3080 nM. Moreover, in assay [4], the EC50 stood at 491 nM.
For `CN1CCN(c2ncc(C(=O)Nc3cc4nc(-c5cnn(C)c5)ccc4cn3)s2)CC1` [Compound 4539, N-(2-(1-Methyl-1H-pyrazol-4-yl)-1,6-naphthyridin-7-yl)-2-(4-methylpiperazin-1-yl)thiazole-5-carboxamide], the EC50 on DYRK1A kinase is 2 nM; at GSK3β kinase, 2230 nM; in assay [1] it was 80 nM; in assay [2] it was 782 nM; in assay [3] it was 301 nM; with IL-6, over 10000 nM. In addition, the EC50 in assay [4] was found to be 1100 nM. Also, in the assay with IL-6, the inhibition at 10 µM is 37.4%.
For the compound `Cn1cc(-c2ccc3cnc(NC(=O)c4ccc5nccnc5c4)nc3c2)cn1` [Compound 1123, N-(7-(1-Methyl-1H-pyrazol-4-yl)quinazolin-2-yl)quinoxaline-6-carboxamide], the EC50 on DYRK1A kinase is 13 nM; on GSK3β kinase it was 4800 nM; in assay [1], 1000 nM; in assay [2], 6120 nM; in assay [3] it was 1960 nM; in the assay on IL-6 it was over 10000 nM. Moreover, in assay [4], the EC50 is over 10000 nM. For the same compound, the inhibition at 10 µM in the assay with IL-6 stood at 6.5%; in assay [4] it was 22%.
Consider `CN1CCN(Cc2cccc(C(=O)Nc3ncc4ccc(-c5cnn(C)c5)cc4n3)c2)CC1` [Compound 1079, N-(7-(1-Methyl-1H-pyrazol-4-yl)quinazolin-2-yl)-3-((4-methylpiperazin-1-yl)methyl)benzamide], for which the EC50 at DYRK1A kinase is 19 nM; at GSK3β kinase it was 9740 nM; in assay [1], 1400 nM; in assay [2] it was 3390 nM; in assay [3], 1000 nM; in the assay on IL-6 it was over 10000 nM. The same compound came in with an EC50 in assay [4] of over 10000 nM. Besides, the inhibition at 10 µM in the assay with IL-6 amounted to 12.7%; in assay [4], 14.3%.
With `Cn1cc(-c2ccc3cnc(NC(=O)c4ccc5nccnc5c4)cc3n2)cn1` [Compound 216, N-(2-(1-Methyl-1H-pyrazol-4-yl)-1,6-naphthyridin-7-yl)quinoxaline-6-carboxamide], the EC50 is 7 nM at DYRK1A kinase; 4850 nM on GSK3β kinase; 378 nM in assay [1]; 3160 nM in assay [2]; 447 nM in assay [3]; over 10000 nM in the assay with IL-6. Moreover, the EC50 in assay [4] stood at 598 nM. In addition, the inhibition at 10 µM in the assay with IL-6 stood at 0%.
On to `Cc1ncc(-c2ccc3cnc(NC(=O)c4ccncc4)cc3n2)s1` [Compound 641, N-(2-(2-Methylthiazol-5-yl)-1,6-naphthyridin-7-yl)isonicotinamide], for which the EC50 at DYRK1A kinase is 8 nM; on GSK3β kinase, 2560 nM; in assay [1], 433 nM; in assay [2], 1680 nM; in assay [3] it was 977 nM; in the assay on IL-6, over 10000 nM. Also, the EC50 in assay [4] is 347 nM. Further, the inhibition at 10 µM with IL-6 is 16.4%.
On to `CN1CCN(c2cc(C(=O)Nc3cc4cc(-c5cnn(C)c5)ncc4cn3)ccn2)CC1` [Compound 3774, N-(6-(1-Methyl-1H-pyrazol-4-yl)-2,7-naphthyridin-3-yl)-2-(4-methylpiperazin-1-yl)isonicotinamide], for which the EC50 at DYRK1A kinase was 10 nM; at GSK3β kinase it was 397 nM; in assay [1], 972 nM; in assay [2] it was 9640 nM; in assay [3] it was over 10000 nM; in the assay with IL-6, over 10000 nM. Further, the EC50 in assay [4] amounted to 5860 nM. The inhibition at 10 µM in assay [3] came to 54.7%; with IL-6, 10.8%.
